Test results as given in article PMC3311054 (2012).

Tests used:
[1] = target: T1, Rhodobacter capsulatus xanthine oxidoreductase (RcXOR) (Rhodobacter capsulatus, UniProt O54051); assay: steady-state kinetics, Lineweaver-Burk plots of xanthine-NAD+ activity; type: biochemical
T1 sequence (O54051 1-777): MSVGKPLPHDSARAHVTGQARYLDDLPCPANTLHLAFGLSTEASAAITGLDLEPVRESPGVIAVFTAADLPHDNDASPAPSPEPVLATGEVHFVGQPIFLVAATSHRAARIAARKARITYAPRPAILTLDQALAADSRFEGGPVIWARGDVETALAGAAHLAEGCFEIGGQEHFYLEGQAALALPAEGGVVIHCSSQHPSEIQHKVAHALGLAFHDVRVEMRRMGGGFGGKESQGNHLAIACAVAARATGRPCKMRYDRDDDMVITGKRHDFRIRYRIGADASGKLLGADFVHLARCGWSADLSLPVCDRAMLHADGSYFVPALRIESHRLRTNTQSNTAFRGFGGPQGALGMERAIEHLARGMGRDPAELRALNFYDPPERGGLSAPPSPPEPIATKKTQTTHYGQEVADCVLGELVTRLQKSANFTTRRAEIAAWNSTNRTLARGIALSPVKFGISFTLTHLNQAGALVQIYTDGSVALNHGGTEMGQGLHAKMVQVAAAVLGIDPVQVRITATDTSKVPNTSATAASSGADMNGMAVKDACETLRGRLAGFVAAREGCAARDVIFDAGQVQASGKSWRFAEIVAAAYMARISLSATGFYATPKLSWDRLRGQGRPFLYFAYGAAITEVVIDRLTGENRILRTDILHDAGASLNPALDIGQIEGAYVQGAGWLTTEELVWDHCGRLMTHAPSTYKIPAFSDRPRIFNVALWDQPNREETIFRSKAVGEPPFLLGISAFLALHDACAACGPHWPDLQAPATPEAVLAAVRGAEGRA
T1 sequence (O54050 1-462 partner): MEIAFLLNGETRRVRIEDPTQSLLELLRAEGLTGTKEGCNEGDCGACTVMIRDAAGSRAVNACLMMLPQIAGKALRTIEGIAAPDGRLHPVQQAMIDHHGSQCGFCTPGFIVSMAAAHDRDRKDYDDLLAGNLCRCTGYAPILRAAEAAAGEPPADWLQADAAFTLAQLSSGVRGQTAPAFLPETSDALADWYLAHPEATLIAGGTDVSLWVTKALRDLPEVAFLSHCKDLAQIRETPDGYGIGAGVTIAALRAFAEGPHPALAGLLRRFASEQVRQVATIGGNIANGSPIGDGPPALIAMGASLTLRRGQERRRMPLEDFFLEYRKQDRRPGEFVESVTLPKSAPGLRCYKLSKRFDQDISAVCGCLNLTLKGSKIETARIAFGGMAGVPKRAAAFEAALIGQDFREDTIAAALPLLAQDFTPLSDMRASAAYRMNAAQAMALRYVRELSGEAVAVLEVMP

[2] = target: bovine milk xanthine oxidoreductase (bXOR) (Bos taurus, UniProt P80457); assay: steady-state kinetics, xanthine-NAD+ activity, uric acid absorbance at […] nm; type: biochemical
Chain of bovine milk xanthine oxidoreductase (bXOR) (P80457 2-1332): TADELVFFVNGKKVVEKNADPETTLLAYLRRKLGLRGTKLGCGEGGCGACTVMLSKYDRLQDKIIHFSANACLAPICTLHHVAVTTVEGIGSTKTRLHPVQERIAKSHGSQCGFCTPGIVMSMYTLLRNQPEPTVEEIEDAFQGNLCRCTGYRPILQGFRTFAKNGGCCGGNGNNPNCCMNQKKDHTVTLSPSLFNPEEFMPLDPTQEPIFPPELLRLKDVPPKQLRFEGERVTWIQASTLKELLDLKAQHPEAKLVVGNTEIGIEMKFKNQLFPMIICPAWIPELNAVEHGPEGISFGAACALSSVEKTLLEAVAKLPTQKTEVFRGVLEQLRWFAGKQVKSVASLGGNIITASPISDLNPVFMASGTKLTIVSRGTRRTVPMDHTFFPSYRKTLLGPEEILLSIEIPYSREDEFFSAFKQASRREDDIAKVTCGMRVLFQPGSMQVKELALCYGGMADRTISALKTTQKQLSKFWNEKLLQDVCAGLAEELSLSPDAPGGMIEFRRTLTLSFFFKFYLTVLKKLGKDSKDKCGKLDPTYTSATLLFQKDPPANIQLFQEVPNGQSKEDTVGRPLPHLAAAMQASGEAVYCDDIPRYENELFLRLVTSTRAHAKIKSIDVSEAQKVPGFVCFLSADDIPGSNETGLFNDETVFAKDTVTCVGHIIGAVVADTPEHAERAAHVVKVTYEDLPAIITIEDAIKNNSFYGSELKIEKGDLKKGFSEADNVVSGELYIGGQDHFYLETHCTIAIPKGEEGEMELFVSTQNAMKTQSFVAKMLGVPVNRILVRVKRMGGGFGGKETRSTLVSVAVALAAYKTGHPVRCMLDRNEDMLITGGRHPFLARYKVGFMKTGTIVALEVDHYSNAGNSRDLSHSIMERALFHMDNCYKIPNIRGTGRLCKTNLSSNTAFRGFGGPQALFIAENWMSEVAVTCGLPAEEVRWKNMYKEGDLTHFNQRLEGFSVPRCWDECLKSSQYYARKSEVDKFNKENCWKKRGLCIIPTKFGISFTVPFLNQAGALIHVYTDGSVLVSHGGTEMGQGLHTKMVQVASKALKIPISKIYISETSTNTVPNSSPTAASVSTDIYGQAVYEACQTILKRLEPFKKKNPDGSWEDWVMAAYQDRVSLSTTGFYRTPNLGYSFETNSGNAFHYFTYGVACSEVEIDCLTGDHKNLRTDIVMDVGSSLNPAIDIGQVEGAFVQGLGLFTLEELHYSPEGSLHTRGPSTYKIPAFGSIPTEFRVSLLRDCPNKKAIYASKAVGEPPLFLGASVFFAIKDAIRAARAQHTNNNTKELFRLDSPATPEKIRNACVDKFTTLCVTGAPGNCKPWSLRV

With `Cc1nc(-c2ccc(OCC(C)C)c(C#N)c2)sc1C(=O)O` [febuxostat] the Ki [1] was 17.5 µM and the “steady-state kinetics, xanthine-NAD+ activity, uric acid absorbance at 295 nm” value [2] was under 100 nM.
